Experimental data taken from patent publication US7741124B2, “Detection procedures for fibrinogen and/or fibrinogen derivatives” (priority 2003, dated 2010).

What was measured:
Assay type in all cases: biochemical
fibrinogen [1] = molecular target: T1, fibrinogen (Homo sapiens, UniProt P02671+P02675+P02679); assay: FIFTA of chloramine-T oxidized / EDTA-supplemented plasma; conditions: 60 min RT, P-Pool and EDTA supplemented P-Pool; read-out: chloramine-T concentration that inactivates 50% of fibrinogen in the FIFTA
T1 construct: pooled patient plasma (P-Pool, n=32 single plasmas); from tissue; host or cells: pooled citrated patient plasma (P-Pool, Fbgen-Pool-Plasma)
T1 sequence (P02671 20-644 isoform P02671-2 limits assumed): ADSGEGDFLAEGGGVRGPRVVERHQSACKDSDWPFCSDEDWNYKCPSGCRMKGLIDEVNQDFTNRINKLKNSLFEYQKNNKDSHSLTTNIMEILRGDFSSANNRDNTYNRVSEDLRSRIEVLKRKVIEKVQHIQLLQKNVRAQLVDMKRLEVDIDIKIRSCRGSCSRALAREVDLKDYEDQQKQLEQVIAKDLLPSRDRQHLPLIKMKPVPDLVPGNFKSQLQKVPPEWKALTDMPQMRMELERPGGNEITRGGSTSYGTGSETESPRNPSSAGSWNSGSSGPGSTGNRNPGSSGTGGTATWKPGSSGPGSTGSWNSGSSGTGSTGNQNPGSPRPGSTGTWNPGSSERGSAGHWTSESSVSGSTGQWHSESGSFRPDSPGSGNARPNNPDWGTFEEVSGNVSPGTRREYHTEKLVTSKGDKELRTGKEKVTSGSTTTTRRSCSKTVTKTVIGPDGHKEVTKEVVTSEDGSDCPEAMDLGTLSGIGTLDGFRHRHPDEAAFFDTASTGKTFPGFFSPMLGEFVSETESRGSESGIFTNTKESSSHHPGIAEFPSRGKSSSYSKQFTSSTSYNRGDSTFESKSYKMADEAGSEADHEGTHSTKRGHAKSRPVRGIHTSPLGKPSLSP
T1 sequence (P02675 31-491): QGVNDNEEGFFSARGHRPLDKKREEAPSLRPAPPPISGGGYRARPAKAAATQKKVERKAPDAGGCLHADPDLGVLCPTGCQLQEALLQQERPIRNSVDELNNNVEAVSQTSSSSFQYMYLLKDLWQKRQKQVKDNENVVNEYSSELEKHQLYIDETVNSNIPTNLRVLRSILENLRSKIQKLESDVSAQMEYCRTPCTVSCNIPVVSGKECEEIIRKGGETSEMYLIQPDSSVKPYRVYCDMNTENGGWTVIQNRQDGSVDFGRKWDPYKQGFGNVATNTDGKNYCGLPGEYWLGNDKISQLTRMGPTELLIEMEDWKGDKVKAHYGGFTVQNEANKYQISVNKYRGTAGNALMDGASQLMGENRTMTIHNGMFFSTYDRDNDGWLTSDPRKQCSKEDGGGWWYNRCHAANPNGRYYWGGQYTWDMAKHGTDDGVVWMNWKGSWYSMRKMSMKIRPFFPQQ
T1 sequence (P02679 27-437 isoform P02679-2 limits assumed): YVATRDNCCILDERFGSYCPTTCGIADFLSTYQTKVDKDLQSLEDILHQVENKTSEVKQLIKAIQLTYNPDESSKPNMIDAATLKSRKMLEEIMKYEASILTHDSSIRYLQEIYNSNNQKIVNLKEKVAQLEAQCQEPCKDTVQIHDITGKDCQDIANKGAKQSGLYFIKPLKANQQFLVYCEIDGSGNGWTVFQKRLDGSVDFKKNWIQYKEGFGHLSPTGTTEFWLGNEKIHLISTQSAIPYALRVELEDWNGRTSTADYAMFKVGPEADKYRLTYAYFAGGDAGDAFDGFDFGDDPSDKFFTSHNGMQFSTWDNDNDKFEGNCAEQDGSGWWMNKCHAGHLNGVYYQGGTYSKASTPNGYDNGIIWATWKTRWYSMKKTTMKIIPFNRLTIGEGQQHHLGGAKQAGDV
Protocol: The absorption at 405 nm is immediately measured (base value) and exactly after 5 min, if the reaction is performed at room temperature (23° C.). If the reaction is performed at 37° C., the second value is measured after 2 min. A microtiterplate reader (Milenia, DPC, Los Angeles, USA) is used. The increase in absorption (ΔA) is determined and the results are standardized against a pooled plasma of known, preferably of 100% of norm, fibrinogen-activity (Table 1).
(§1) 25 μl P-Pool or P-Pool supplemented with 8.6 mM (3.2 g/l) EDTA were incubated with 25 μl 0-89 mM chloramine-T® in PBS for 60 min at RT. Then the FIATA and the FIFTA were performed. For the FIATA, 25 μl PBS were added and the absorbance at 405 nm was determined (base value). 50 μl 4.4 mM vancomycin in PBS were added and after 1 min (RT) the absorbance at 405 nm was determined again (Table 1). […] 100% control=P-Pool without oxidant.
(§2) 25 μl P-Pool was incubated with 25 μl PBS or with 25 μl 2 mM CT in PBS. After 60 min RT, 25 μl 0-172 mM EDTA in PBS was added. After 5 min RT the FIATA and the FIFTA were performed as indicated in 2.7.

fibrinogen [2] = assay: FIATA (vancomycin reactivity) of chloramine-T oxidized / EDTA-supplemented plasma; conditions: EDTA-plasmas oxidized at 10-20 mM chloramine-T
Protocol: To 25 μl plasma 50 μl PBS are added and the absorbance (405 nm) is determined (base value). Then 50 μl 4.4 mM vancomycin in PBS are added. The absorbance at 405 nm is determined after 2 min, if the reaction is performed at room temperature (23° C.). If the reaction is performed at 37° C., the second value is determined after 1 min. A microtiterplate reader (Milenia, DPC, Los Angeles, USA) is used. The increase in absorption (ΔA) is determined and the results are standardized against a pooled plasma of known, preferably of 100% of norm, fibrinogen-concentration, and against 0.9% NaCl (zero-value of turbidity) (Table 2).
as §1, §2

[3] = molecular target: T2, fibrinogen in human plasma (Homo sapiens, UniProt P02671+P02675+P02679); assay: Inactivation of fibrinogen by vancomycin or chloramine-T (FIFTA read-out); conditions: 15 min 37° C. incubation in plasma, then FIFTA; read-out: IC50 against plasmatic fibrinogen
T2 construct: 200 μl of 256% of norm active fibrinogen in P-Pool; from tissue; host or cells: pooled citrated human patient plasma (P-Pool / Fbgen-Pool)
T2 sequence (P02671 20-629 isoform P02671-2 limits assumed): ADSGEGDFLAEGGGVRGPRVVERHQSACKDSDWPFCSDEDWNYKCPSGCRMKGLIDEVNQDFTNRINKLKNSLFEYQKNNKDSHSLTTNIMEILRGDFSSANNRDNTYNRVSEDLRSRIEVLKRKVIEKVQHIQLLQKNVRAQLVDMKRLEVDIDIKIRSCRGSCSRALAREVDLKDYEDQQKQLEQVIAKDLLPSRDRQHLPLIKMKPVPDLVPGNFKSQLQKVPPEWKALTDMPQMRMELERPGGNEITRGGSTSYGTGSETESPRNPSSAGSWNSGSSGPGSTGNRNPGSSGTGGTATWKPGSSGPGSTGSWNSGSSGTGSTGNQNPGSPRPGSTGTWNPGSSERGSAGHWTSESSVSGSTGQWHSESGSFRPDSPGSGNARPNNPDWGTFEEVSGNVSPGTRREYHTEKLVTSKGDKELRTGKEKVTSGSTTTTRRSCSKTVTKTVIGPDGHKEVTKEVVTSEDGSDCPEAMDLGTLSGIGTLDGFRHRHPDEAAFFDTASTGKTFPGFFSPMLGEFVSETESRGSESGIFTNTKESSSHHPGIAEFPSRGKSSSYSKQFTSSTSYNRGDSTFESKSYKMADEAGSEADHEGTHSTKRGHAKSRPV
T2 sequence (P02675 31-491): T1 sequence (P02675 31-491)
T2 sequence (P02679 27-437 isoform P02679-2 limits assumed): T1 sequence (P02679 27-437 isoform P02679-2 limits assumed)
Protocol: 200 μl of 256% of norm active fibrinogen in P-Pool were incubated with 25 μl 0-100 mM vancomycin or 0-100 mM chloramine-T® in aqua dest. for 15 min (37° C.). 50 μl samples of these reaction mixtures were withdrawn and incubated with 100 μl 200 mIU/ml thrombin, 400 μg/ml Polybrene®, 6% BSA-PBS. The results were standardized by simultaneous analysis of 144% of norm active fibrinogen in P-Pool.

thrombin [4] = molecular target: T3, thrombin (Bos taurus, UniProt P00735); assay: Inhibitory concentration 50% (IC50) of heparin against thrombin, FIFTA turbidity without Polybrene; conditions: FIFTA system without Polybrene
T3 construct: 100 μl 200 mIU/ml thrombin in 6% BSA-PBS (without Polybrene®)
Protocol: 50 μl 100% Pool were added to 10 μl 0-160 IU/ml heparin. 100 μl 200 mIU/ml thrombin in 6% BSA-PBS (without Polybrene®) were added and the increase in absorbance at 405 nm was followed.

thrombin [5] = molecular target: T3, thrombin; assay: Inhibitory time point 50% (ITP50) of 10 IU/ml heparin-thrombin interaction; conditions: 10 IU/ml final heparin
Protocol: 50 μl P-Pool were incubated with 100 μl 200 miU/ml thrombin in 6% BSA-PBS (without Polybrene®). At 0 min (prior to thrombin addition) and 0.5-11 min reaction time (at RT) 10 μl 160 IU/ml heparin in 6% BSA-PBS was added (final heparin conc. in plasma+thrombin reagent=10 IU/ml; this heparin conc. increased the absorbance by 20 mA; all test results were corrected by this heparin induced turbidity increase). The turbidity increase at 405 nm was determined immediately after each heparin addition step and as a function of incubation time.
To determine the heparin addition time point (at RT) that is needed to decrease the 5 min, 10 min, 15 min or 20 min turbidity increase by 50% (inhibitory time point 50%=ITP), 50 μl P-Pool were incubated with 100 μl 200 mIU/ml thrombin in 6% BSA-PBS (without Polybrene®). After 0 s (prior to thrombin addition) and 10-140 s (in 10 s intervals) 10 μl 160 IU/ml heparin in 6% BSA-PBS were added. The turbidity increase at 405 nm as a function of incubation time (3-20 min) was determined.

IC50 (fibrinogen [1]) | IC50 [3] | heparin concentrations that completely inhibit thrombin (thrombin [4]) | time window in which heparin can inhibit fibrin generation (thrombin [5]; RT) | time point of heparin addition that results into a 50% decrease of ΔA (ITP50) (thrombin [5]; ΔA at 5-20 min incubation time (RT)) | Compound | increase of reactivity with vancomycin, % of the citrate control value (fibrinogen [2])
2000 µM | ~2000 µM |  |  |  | Cc1ccc(S(=O)(=O)[N-]Cl)cc1.[Na+] [chloramine-T®, chloramine-T] | 40%
 |  | ≥ 0.63 IU/ml | ≤ 2 min | approximately 30 s | heparin | 
